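48-hour exposure; five concentrations; linearly interpolated endpoints. GI50 = concentration required for 50% inhibition of growth. Definition used: TGI = concentration required for complete inhibition of growth.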
Tests used:
Assay in all cases: DTP human tumour cell line panel, 48 h
[1] = test system: 786-0 renal
[2] = test system: A498 renal
[3] = test system: A549 NSCLC
[4] = test system: ACHN renal
[5] = test system: BT-549 breast
[6] = test system: CAKI-1 renal
[7] = test system: CCRF-CEM leukemia
[8] = test system: COLO 205 colon
[9] = test system: DU-145 prostate
[10] = test system: EKVX NSCLC
[11] = test system: HCC-2998 colon
[12] = test system: HCT-116 colon
[13] = test system: HCT-15 colon
[14] = test system: HL-60(TB) leukemia
[15] = test system: HOP-62 NSCLC
[16] = test system: HOP-92 NSCLC
[17] = test system: HS 578T breast
[18] = test system: HT29 colon
[19] = test system: IGROV1 ovarian
[20] = test system: K-562 leukemia
[21] = test system: KM12 colon
[22] = test system: LOX IMVI melanoma
[23] = test system: M14 melanoma
[24] = test system: MALME-3M melanoma
[25] = test system: MCF7 breast
[26] = test system: MDA-MB-231 breast
[27] = test system: MDA-MB-435
[28] = test system: MDA-MB-468 breast
[29] = test system: MOLT-4 leukemia
[30] = test system: NCI-H226 lung
[31] = test system: NCI-H23 lung
[32] = test system: NCI-H460 lung
[33] = test system: NCI-H522 lung
[34] = test system: NCI/ADR-RES ovarian
[35] = test system: OVCAR-3 ovarian
[36] = test system: OVCAR-4 ovarian
[37] = test system: OVCAR-5 ovarian
[38] = test system: OVCAR-8 ovarian
[39] = test system: PC-3 prostate
[40] = test system: RPMI-8226 leukemia
[41] = test system: RXF 393 renal
[42] = test system: SF-268 CNS
[43] = test system: SF-295 CNS
[44] = test system: SF-539 CNS
[45] = test system: SK-MEL-2 melanoma
[46] = test system: SK-MEL-28 melanoma
[47] = test system: SK-MEL-5 melanoma
[48] = test system: SK-OV-3 ovarian
[49] = test system: SN12C renal
[50] = test system: SNB-19 CNS
[51] = test system: SR leukemia
[52] = test system: SW-620 colon
[53] = test system: T-47D breast
[54] = test system: TK-10 renal
[55] = test system: U251 CNS
[56] = test system: UACC-257 melanoma
[57] = test system: UACC-62 melanoma
[58] = test system: UO-31 renal

Compound `COc1cccc(/C=C/C(=O)c2ccc(OC)c(S(N)(=O)=O)c2)c1` has a GI50 [1] of 2.9 µM, a TGI [1] of 11 µM and a GI50 [2] of 14.3 µM. The TGI [2] was 28 µM, the GI50 [3] was 2.64 µM and the TGI [3] was 11.5 µM. The GI50 [4] was 1.85 µM, the TGI [4] was 3.7 µM and the GI50 [5] was 2.52 µM. The TGI [5] was 8.85 µM, the GI50 [6] was 4.16 µM and the TGI [6] was 16.1 µM. For the same compound, the GI50 [7] was 2.51 µM, the TGI [7] was 6.23 µM and the GI50 [8] was 2.93 µM. For the same compound, the TGI [8] was 11 µM, the GI50 [9] was 5.73 µM and the TGI [9] was 18.1 µM. It also gave a GI50 [10] of 8.05 µM, a TGI [10] of 20.9 µM and a GI50 [11] of 2.88 µM. It also gave a TGI [11] of 12.1 µM, a GI50 [12] of 1.59 µM and a TGI [12] of 3.31 µM. The GI50 [13] was 1.27 µM, the TGI [13] was 3.34 µM and the GI50 [14] was 1.88 µM. The TGI [14] was 5.18 µM, the GI50 [15] was 2.7 µM and the TGI [15] was 10.2 µM. The GI50 [16] was 6.37 µM, the TGI [16] was 20.2 µM and the GI50 [17] was 15.5 µM. The TGI [17] was 50.6 µM, the GI50 [18] was 1.91 µM and the TGI [18] was 4.05 µM. It also gave a GI50 [19] of 2.98 µM, a TGI [19] of 12.5 µM and a GI50 [20] of 2.12 µM. The TGI [20] was 6.4 µM, the GI50 [21] was 2.12 µM and the TGI [21] was 5.11 µM. For the same compound, the GI50 [22] was 1.64 µM, the TGI [22] was 3.47 µM and the GI50 [23] was 4.42 µM. It also gave a TGI [23] of 17.7 µM, a GI50 [24] of 12.4 µM and a TGI [24] of 25.1 µM. The GI50 [25] was 2.87 µM, the TGI [25] was 12.5 µM and the GI50 [26] was 3.8 µM. For the same compound, the TGI [26] was 13.6 µM, the GI50 [27] was 4.66 µM and the TGI [27] was 16.5 µM. For the same compound, the GI50 [28] was 1.99 µM, the TGI [28] was 7.17 µM and the GI50 [29] was 2.12 µM. It also gave a TGI [29] of 5.16 µM, a GI50 [30] of 2.72 µM and a TGI [30] of 11.1 µM. It also gave a GI50 [31] of 4.66 µM, a TGI [31] of 16.9 µM and a GI50 [32] of 3.45 µM. For the same compound, the TGI [32] was 13.8 µM, the GI50 [33] was 2.48 µM and the TGI [33] was 8.39 µM. The GI50 [34] was 2.83 µM, the TGI [34] was 9.24 µM and the GI50 [35] was 2.9 µM. It also gave a TGI [35] of 10.8 µM, a GI50 [36] of 4.87 µM and a TGI [36] of 20.1 µM. For the same compound, the GI50 [37] was 2.61 µM, the TGI [37] was 10.8 µM and the GI50 [38] was 2.96 µM. For the same compound, the TGI [38] was 12 µM, the GI50 [39] was 5.25 µM and the TGI [39] was 18.4 µM. It also gave a GI50 [40] of 2.54 µM, a TGI [40] of 7.24 µM and a GI50 [41] of 3.39 µM. For the same compound, the TGI [41] was 15.1 µM, the GI50 [42] was 4.85 µM and the TGI [42] was 18.9 µM. The GI50 [43] was 2.9 µM, the TGI [43] was 12.6 µM and the GI50 [44] was 1.96 µM. It also gave a TGI [44] of 4.56 µM, a GI50 [45] of 14 µM and a TGI [45] of 27.3 µM. It also gave a GI50 [46] of 9.04 µM, a TGI [46] of 21.1 µM and a GI50 [47] of 5.23 µM. It also gave a TGI [47] of 18 µM, a GI50 [48] of 10.1 µM and a TGI [48] of 21.9 µM. For the same compound, the GI50 [49] was 2.74 µM, the TGI [49] was 10.9 µM and the GI50 [50] was 4.82 µM. It also gave a TGI [50] of 17.2 µM, a GI50 [51] of 1.26 µM and a TGI [51] of 4.09 µM. For the same compound, the GI50 [52] was 3.16 µM, the TGI [52] was 12 µM and the GI50 [53] was 2.97 µM. The TGI [53] was 14.2 µM, the GI50 [54] was 2.81 µM and the TGI [54] was 13.1 µM. The GI50 [55] was 2.5 µM, the TGI [55] was 9.83 µM and the GI50 [56] was 10.2 µM. For the same compound, the TGI [56] was 22.5 µM, the GI50 [57] was 4.16 µM and the TGI [57] was 16.9 µM. For the same compound, the GI50 [58] was 2.03 µM and the TGI [58] was 9.93 µM.

— PubChem BioAssay (NCI)
